Article PMC8708940, “Crossing of the Cystic Barriers of Toxoplasma gondii by the Fluorescent Coumarin Tetra-Cyclopeptide” (Molecules, 2021)

What was measured:
[1] = system: Ex vivo T. gondii cysts (PRU strain); experiment: Cyst and bradyzoite penetration observed by fluorescence microscopy; type: cell-based, Toxoplasma gondii; conditions: 37 °C, exposure time 100 ms
Source text: To focus on the ability of the cyclic tetrapeptide moiety to transport compounds through the cyst wall, we began our investigation by monitoring the transport of the poorly cell-permeable fluorochrome 3 (Figure 2) by optical microscopy.
To ensure that the fluorescent compound was incorporated to the parasite cell, bradyzoites were released from treated cysts (Figure 3b).
Cysts were isolated from the brains of mice chronically infected with the Pru-Δhxgprt-A7 or the Pru strains for at least 6 weeks, either using the Percoll gradient method as described previously or directly harvesting the cysts using a 10-μL pipet for the dye experimentation in order to prevent deterioration of the cyst wall for the permeability studies.
Images were acquired with a Axioplan 2 fluorescence microscope (Carl Zeiss Microimaging, Thornwood, NY, USA) and processed with the ZEN software (Zeiss).

[2] = system: T. gondii RH strain tachyzoite; type: cell-based, Toxoplasma gondii; conditions: intracellular growth of RH strain tachyzoite in HFF
Source text: The parasite strains used in this study are the following: the T. gondii type I RH strain that has lost the ability to complete cyst conversion, the T. gondii type II Prugniaud (Pru) strain that is capable of robust bradyzoite differentiation, the T. gondii type II Pru-Δhxgprt-A7 strain that expresses green fluorescent protein (GFP), the Pru-Δku80 strain [36, 37], and the RH Tg hdac3 T99A strain (previously obtained in our laboratory).
(§1) All T. gondii strains were maintained by serial passage in an HFF (Human Foreskin Fibroblasts) monolayer under tachyzoite growth conditions in Dulbecco’s modified Eagle medium (DMEM; Invitrogen) supplemented with 10% (vol/vol) fetal bovine serum (FBS; Invitrogen), 4 mM glutamine, 500 U/mL penicillin, 250 µg/mL streptomycin at 37 °C and 25 mM Hepes buffer (Invitrogen) in 5% CO2.

[3] = system: human cells HFF; type: cell-based; conditions: human foreskin fibroblasts
Protocol: as §1

Compound	Fluorescent labeling of isolated cysts (cyst penetration) ([1]; isolated ex vivo cysts, 1 µM, 24 h, PBS washing)	EC50 [2]	EC50 [3]	Fluorescence of isolated cysts (penetration and accumulation in the cyst) ([1]; 200 nM to 3.7 µM, 3, 22 and 96 h)	Labeling of bradyzoites released from treated cysts ([1]; 3.7 µM for 3 h, bradyzoites released from the cyst)
C=CCC[C@@H]1NC(=O)[C@H]2CCCN2C(=O)[C@H](Cc2ccccc2)NC(=O)[C@](C)(Cc2cn(-c3cc4ccc(N(CC)CC)cc4oc3=O)nn2)NC1=O [compound 2]	labeled them with a high intensity				
CCN(CC)c1ccc2cc(-n3cc(C[C@]4(C)NC(=O)[C@H](CCCCCC(=O)[C@@H](C)O)NC(=O)[C@H]5CCCN5C(=O)[C@H](Cc5ccccc5)NC4=O)nn3)c(=O)oc2c1 [compound 1]		43 ± 2.2 nM	280 ± 20 nM	increasing fluorescence was observed	clearly show labeling of these bradyzoites
